In US4880809A, “1,4-disubstituted piperazines (or homopiperazines) as platelet-activating factor antagonists” (Takeda Chemical Industries, Ltd., priority 1987, dated 1989) one finds inhibition and inhibition in vivo data, which are given here for 22 compounds.

For assay [1], the system named is PAF-Induced Platelet Aggregation. Description: Inhibitory Action on PAF-Induced Platelet Aggregation. The class given is cell-based, New Zealand white male rabbits. The note with it: Oryctolagus cuniculus, Drug Concentration: 3 × 10^-5 M, rabbit PRP.
Procedure: Blood was collected from the hearts of conscious New Zealand white male rabbits weighing 2 to 3 kg using citric acid as an anticoagulant (one volume part of 3.15% citric acid per 9 volume parts of the whole blood). The blood was subjected to a centrifuge at 800 rpm for ten minutes to obtain platelet rich plasma (PRP). The remaining blood after collecting the PRP was subjected to a centrifuge at 3000 rpm for ten minutes to obtain platelet poor plasma (PPP). PRP was diluted with PPP, and the number of platelets was adjusted to 500,000/μl. Platelet aggregation was examined by means of turbidimetry [Born, Nature, 194, 927-929 (1962)] with 8 channel aggregometer (NBS HEMA TRACER 6 Nikoh, Bioscience, Japan). More concretely, PRP (250 μl) was kept warm (37° C.) for three minutes in a silicon-processed cuvette, to which was added a test sample (25 μl) dissolved in a physiological saline or in 10mM dimethylsulfoxide followed by dilution with a physiological saline. Two minutes later, PAF (25 μl, 3×10^-9 -1×10^-8 M), dissolved in a physiological saline, was added and then the maximum aggregation rate was determined. As the control, physiological saline without test sample was added to the cuvette, and the inhibitory rate thereon was determined.
Assay [2] has as its system PAF-Induced Hypotension. Description: Inhibitory Action on PAF-Induced Hypotension. The format is in vivo, SD (Jcl) male rats. The note with it: po, rat; for inhibition in vivo at 30 mg/kg: 30 mg/kg p.o.; for inhibition in vivo at 10 mg/kg: 10 mg/kg p.o.; for inhibition in vivo at 3 mg/kg: 3 mg/kg p.o. The procedure:
SD (Jcl) male rats of 6 to 8 week old were subjected to the experiment. After fasting overnight, the rats were cannulated into the femoral artery and vein under anesthesia with pentobarbital. A transducer (MPU-0.5-290O-III, TOYO BALDWIN, Japan) was connected with the artery cannula, and blood pressure was continuously measured. […] The rate of inhibition of lowering of blood pressure after administration of the test samples against the control was evaluated.

Structures can show the parent of a compound that is named as a salt.

As usually defined, the inhibition is the relative decrease from the control value, in per cent. Lower therefore signals a weak effect. The term inhibition in vivo denotes how much of the control response was suppressed. Lower therefore signals a response near the control.

As for `COc1ccc2c(c1)CCC(C(=O)N1CCN(Cc3cc(OC)c(OC)c(OC)c3)CC1)=C2` [Example 1, 1-(7-methoxy-1,2-dihydro-3-naphthoyl)-4-(3,4,5-trimethoxybenzyl)piperazinehydrochloride], the inhibition at 30 µM in assay [1] amounted to 100%.

The compound `COc1cc(CN2CCN(C(=O)c3ccc4c(OC)c(OC)c(OC)cc4c3)CC2)cc(OC)c1OC` [Example 12, 1-(3,4,5-trimethoxybenzyl)-4-(5,6,7-trimethoxy)-2-naphthoyl)piperazine hydrochloride] yielded an inhibition at 30 µM in assay [1] of 100%.

In assay [1], `COc1ccc2cc(C(=O)N3CCN(Cc4cc(OC)c(OC)c(OC)c4)CC3)ccc2c1` [Example 9, 1-(6-methoxy-2-naphthoyl)-4-(3,4,5-trimethoxybenzyl)piperazine hydrochloride] displayed an inhibition at 30 µM of 87%.

For the compound `COc1cc(C(=O)N2CCN(C(=O)C3=Cc4ccc(OC)c(OC)c4CCC3)CC2)cc(OC)c1OC` [Example 78, 1-(3,4-dimethoxy-6,7-dihydro-5H-benzocyclohepten-8-ylcarbonyl)-4-(3,4,5-trimethoxybenzoyl)piperazine], the inhibition in vivo at 30 mg/kg in assay [2] (after 1 hr) came out at 73%; in assay [2] (after 2 hrs), 57%; in assay [2] (after 4 hrs), 26%.

`COc1cc2ccc(C(=O)N3CCN(Cc4cc(OC)c(OC)c(OC)c4)CC3)cc2cc1OC` [Example 21, 1-(6,7-dimethoxy-2-naphthoyl)-4-(3,4,5-trimethoxybenzyl)piperazinehydrochloride] showed an inhibition at 30 µM in assay [1] of 93%.

For `COc1cc2ccc(C(=O)N3CCN(Cc4cc(OC)c(OC)c(OC)c4)CC3)c(O)c2cc1OC` [Example 41, 1-(6,7-dimethoxy-1-hydroxy-2-naphthoyl)-4-(3,4,5-trimethoxybenzyl)piperazine hydrochloride], testing at 30 µM in assay [1] gave an inhibition of 97%.

Compound `COc1cc2ccccc2cc1C(=O)N1CCN(Cc2cc(OC)c(OC)c(OC)c2)CC1` [Example 24, 1-(3-methoxy-2-napththoyl)-4-(3,4,5-trimethoxybenzyl)piperazine hydrochloride] gave an inhibition at 30 µM in assay [1] of 100%.

With `COc1cc2c(cc1OC)CC(C(=O)N1CCN(C(=O)c3cc(OC)c(OC)c(OC)c3)CC1)CCC2` (stereo not drawn) [Example 86, 1-(2,3-dimethoxy-5,6,7,8-tetrahydrobenzocyclohepten-6-ylcarbonyl)-4-(3,4,5-trimethoxy-benzoyl)piperazine], the inhibition in vivo at 10 mg/kg in assay [2] (after 1 hr) is 90%; in assay [2] (after 2 hrs) it was 92%; in assay [2] (after 4 hrs) it was 92%. In addition, the inhibition in vivo at 30 mg/kg in assay [2] (after 1 hr), in assay [2] (after 2 hrs) and in assay [2] (after 4 hrs) was 100% each time.

Take `CCCCOc1ccc2cc(C(=O)N3CCN(Cc4cc(OC)c(OC)c(OC)c4)CC3)ccc2c1` [Example 17, 1-(6-butoxy-2-naphthoyl)-4(3,4,5-trimethoxybenzyl)piperazine hydrochloride]: at 30 µM the inhibition in assay [1] was 97%.

As to `COc1cc(CN2CCN(C(=O)C3=Cc4ccc(OC)c(OC)c4CCC3)CC2)cc(OC)c1OC` [Example 43, 1-(3,4-dimethoxy-6,7-dihydro-5H-benzocyclohepten-8-ylcarbonyl)-4-(3,4,5-trimethoxybenzyl)piperazine hydrochloride], in assay [1], the inhibition at 30 µM came out at 89%.

Consider `COc1cc(CN2CCN(C(=O)c3cccc4ccccc34)CC2)cc(OC)c1OC` [Example 8, 1-(1-naphthoyl)-4-(3,4,5-trimethoxybenzyl)piperazine hydrochloride], for which testing at 30 µM in assay [1] gave an inhibition of 84%.

In assay [1], `COc1cc(CN2CCN(C(=O)C3=Cc4cc(OCc5ccccc5)c(OCc5ccccc5)cc4CC3)CC2)cc(OC)c1OC` [Example 28, 1-(6,7-dibenzyloxy-1,2-dihydro-3-naphthoyl)-4-(3,4,5-trimethoxybenzyl)piperazine hydrochloride] registered an inhibition at 30 µM of 87%.

The compound `CCCCOc1cc2ccc(C(=O)N3CCN(Cc4cc(OC)c(OC)c(OC)c4)CC3)cc2cc1OCCCC` [Example 23, 1-(6,7-dibutoxy-2-naphthoyl)-4-(3,4,5-trimethoxybenzyl)piperazine hydrochloride] came in with an inhibition at 30 µM in assay [1] of 100%.

The compound `COc1cc(CN2CCN(C(=O)c3ccc4c(c3)C(=O)c3ccccc3-4)CC2)cc(OC)c1OC` [Example 38, 1-(9-oxo-2-fluorenylcarbonyl)-4-(3,4,5-trimethoxybenzyl)piperazine] came in with an inhibition at 30 µM in assay [1] of 85%.

Turning to `CCOc1c(OC)cc(C(=O)N2CCN(C(=O)C3=Cc4cc(OC)c(OC)cc4CCC3)CC2)cc1OC` [Example 75, 1-(2,3-dimethoxy-6,7-dihydro-5H-benzocyclohepten-8-ylcarbonyl)-4-(3,5-dimethoxy-4-ethoxy-benzoyl)piperazine], the results for the inhibition in vivo at 30 mg/kg in assay [2] (after 1 hr), in assay [2] (after 2 hrs) and in assay [2] (after 4 hrs) were 61%, 54% and 61%, respectively.

`COc1cc(CN2CCN(C(=O)C3=Cc4cc(OC(C)=O)c(OC(C)=O)cc4CC3)CC2)cc(OC)c1OC` [Example 36, 1-(6,7-diacetyloxy-1,2-dihydro-3-naphthoyl)-4-(3,4,5-trimethoxybenzyl)piperazine fumarate] yielded an inhibition at 30 µM in assay [1] of 86%.

Take `COc1cc(CN2CCN(C(=O)C3=Cc4ccc(OCc5ccccc5)cc4CC3)CC2)cc(OC)c1OC` [Example 32, 1-(7-benzyloxy-1,2-dihydro-3-naphthoyl)-4-(3,4,5-trimethoxybenzyl)piperazine hydrochloride]: the inhibition at 30 µM in assay [1] worked out at 100%.

On to `CCOc1cc2c(cc1OCC)CCCC(C(=O)N1CCN(C(=O)c3cc(OC)c(OC)c(OC)c3)CC1)=C2` [Example 73, 1-(2,3-diethoxy-6,7-dihydro-5H-benzocyclohepten-8-ylcarbonyl)-4-(3,4,5-trimethoxybenzoyl)piperazine], for which the figures for the inhibition in vivo at 30 mg/kg in assay [2] (after 1 hr), in assay [2] (after 2 hrs) and in assay [2] (after 4 hrs) were 98%, 98% and 96%, respectively.

Take `COc1cc2c(cc1OC)CC(C(=O)N1CCN(C(=O)c3cc(OC)c(OC)c(OC)c3)CC1)CC2` (stereo not drawn) [Example 79]: the inhibition in vivo at 30 mg/kg worked out at 81% in assay [2] (after 1 hr), 88% in assay [2] (after 2 hrs) and 66% in assay [2] (after 4 hrs).

Consider `COc1cc2c(cc1OC)CC(C(=O)N1CCN(C(=O)c3cc(OC)c(OC)c(OC)c3)CC1)=C2` [Example 61, 1-(5,6-dimethoxy-1-H-inden-2-ylcarbonyl)-4-(3,4,5-trimethoxybenzoyl)piperazine], for which the results for the inhibition in vivo at 30 mg/kg in assay [2] (after 1 hr), in assay [2] (after 2 hrs) and in assay [2] (after 4 hrs) were 86%, 82% and 74%, respectively.

For `CCCCOc1ccc2c(c1)CCC(C(=O)N1CCN(Cc3cc(OC)c(OC)c(OC)c3)CC1)=C2` [Example 15, 1-(7-butoxy-1,2-dihydro-3-naphthoyl)-4-(3,4,5-trimethoxybenzyl)piperazine hydrochloride], in assay [1], the inhibition at 30 µM stood at 100%.

`COc1cc2c(cc1OC)CCCC(C(=O)N1CCN(C(=S)c3cc(OC)c(OC)c(OC)c3)CC1)=C2` [Example 76, 1-(2,3-dimethoxy-6,7-dihydro-5H-benzocyclohepten-8-ylcarbonyl)-4-(3,4,5-trimethoxythiobenzoyl)piperazine]: the inhibition in vivo at 3 mg/kg in assay [2] (after 1 hr) stood at 72%; in assay [2] (after 2 hrs) it was 69%; in assay [2] (after 4 hrs), 60%. For the same compound, the inhibition in vivo at 30 mg/kg in assay [2] (after 1 hr), in assay [2] (after 2 hrs) and in assay [2] (after 4 hrs) was 100% each time.
